Reference: patent US8470745B2, “Methods and compositions for obtaining and using biologically active multi-protein complexes” (priority 2006, dated 2013)

Key:
[1] = tested on: GABAA receptor complexes; experiment: Tyrosine phosphorylation in isolated GABAA receptor complexes (Western blotting); assay type: biochemical; settings: Five mM SOV, 30° C. for 1 hour, hippocampus tissue, vs control
Protocol: To test the effect of PTP inhibitor SOV on isolated GABA receptor complexes, hippocampus tissue was removed and homogenized with the solubilization/immunoprecipitation buffer described above. GABAA receptor complexes were immunoprecipitated using anti-β2/β3 antibody (Upstate Biotechnology, Lake Placid, N.Y., USA) as described in Example 1. The immobilized complexes were rinsed and solubilization/immunoprecipitation buffer was replaced with reaction buffer. This reaction buffer was added to all the wells. Control wells contained only the reaction buffer or reaction buffer and ATP alone. Five mM of SOV was added to the rest of the wells and incubated at 30° C. for 1 hour. The reaction was stopped with a blocking buffer and samples rinsed and subjected to Western blotting with anti-pTyr and anti-β2/β3 antibodies.

[2] = tested on: α-7nACh receptor complexes; experiment: Tyrosine phosphorylation in isolated α-7nACh receptor complexes (Western blotting); assay type: biochemical; settings: Five mM SOV, 30° C. for 1 hour, hippocampus tissue, vs control
Protocol: To test the effect of PTP inhibitor SOV on isolated a-7nACh receptor complexes, hippocampus tissue was dissected from the brain and homogenized with the solubilization/immunoprecipitation buffer described above, with some modifications. The solubilization buffer contained 0.05% TritonX-100 instead of 0.1% as used in Example 1. Immobilized complexes were rinsed and solubilization/immunoprecipitation buffer was replaced with reaction buffer. This reaction buffer was added to all the wells. Control wells contained only the reaction buffer or reaction buffer and ATP alone. Five mM SOV was added to rest of the wells and incubated at 30° C. for 1 hour. The reaction was stopped with a blocking buffer and samples rinsed and subjected to Western blotting with anti-pTyr, anti-α7 antibodies.

[3] = tested on: HCN4 ion channel complexes; experiment: Tyrosine phosphorylation in isolated HCN4 ion channel complexes; assay type: biochemical; settings: Five mM SOV, 30° C. for 1 hour; rat ventricles; vs control
Protocol: To test the effect of PTP inhibitor SOV, rat ventricles were dissected and homogenized in solubilization/immunoprecipitation buffer and subjected to co-immunoprecipitation by incubation with anti-HCN4 polyclonal antibody (Alpha Diagnostic International, San Antonio, Tex.), as described in Example 1. Immobilized complexes were rinsed and solubilization/immunoprecipitation buffer was replaced with reaction buffer. This reaction buffer was added to all the wells. Control wells contained only the reaction buffer or reaction buffer and ATP alone. Five mM SOV was added to rest of the wells and incubated at 30° C. for 1 hour. The reaction was stopped with blocking buffer and samples were rinsed and subjected to Western blotting or fluorescence analysis using anti-pTyr and anti-HCN4 antibodies.

[4] = tested on: NMDAR complexes; experiment: Activity test on immobilized NMDAR complexes (immunoblotting and immunofluorescence detection); assay type: biochemical, rat; settings: Five mM SOV, 30° C. for 1 hour, vs control
Protocol: Experiments were performed on cortical tissue obtained from 3 week-old Sprague-Dawley rats. All procedures were conducted in strict adherence with the NIH Guide for the Care and Use of Laboratory Animals. Cortical tissue from 21 day-old rats was solubilized using a syringe in solubilization/immunoprecipitation buffer containing 0.1% Triton X-100, 0.2% β-mercaptoethanol, 50 mM Tris-HCl pH 7.5, 5 mM EDTA, 5 mM EGTA, 10 mg/ml of Sigma protease inhibitor cocktail, 1 mM phenylmethylsulfonyl fluoride. The tissue homogenate was centrifuged (15,000 g for 10 min at 4° C.) to remove insoluble material. The supernatantusprenat was kept at 4° C. and used later for immunoprecipitation. Protein A/G pre-coated 96-well plates (Pierce Biotechnology, Rockford, Ill.) were used for immunoprecipitation of active NMDA receptor complexes. The plates were washed with the solubilization/immunoprecipitation buffer and anti-NR1 antibody (20 μg) was added to each well in 100 μL of extraction buffer. Following a 2 hour incubation at room temperature, the wells were rinsed 3 times with solubilization/immunoprecipitation buffer and 100 μL of supernatant were added to each well. Following 4 hours incubation at 4° C., the wells were washed three times with a reaction buffer containing: 0.2% β-mercaptoethanol, 25 mM Tris-HCl pH 7.5, 30 mM MgCl2, 20 mM MnCl2, 0.5 mM DTT.
Fifty μL of reaction buffer, 500 μM ATP, and the agents to be tested were added to each well. The control wells contained 50 μL of reaction buffer alone or in the presence 500 μM ATP. All samples were incubated at 30° C. for 1 hour. […]
For fluorescence detection experiments, black 96-well plates were used to avoid fluorescence spill over. […] Multi-well plates were read on a Cytofluor 2350 fluorescence plate reader using the appropriate filters. […]

[5] = immunoblotting and immunofluorescence

[Na+].[Na+].[Na+].[O]=[V]([O-])([O-])[O-] [SOV, sodium orthovanadate]
tyrosine phosphorylation of β2/β3 subunits (ratio of pTyr to β2/β3) [1]: increased | tyrosine phosphorylation of α-7 subunits in the receptor (FIG. 5: ratio of pTyr to α-7) [2]: increased | tyrosine phosphorylation of HCN4 subunits (ratio of pTyr to HCN4) [3]: increased | amount of NR2A/B in the receptor (ratio NR2A/B to NR1) [4, 5]: decreased | tyrosine phosphorylation of NR2A/B subunits (ratio of pTyr to NR2A/B) [4, 5]: increased | amount of PSD-95 in the receptor (ratio PSD-95 to NR1) [4]: decreased
